The target of assay [1] is farnesyl protein transferase (H-ras) (Homo sapiens, UniProt P49354+P49356). In words: FPT IC50 (H-ras), inhibition of farnesyl protein transferase, in vitro enzyme assay. Type of assay: biochemical. The method, then: (§1) FPT IC50 (inhibition of farnesyl protein transferase, in vitro enzyme assay) and COS Cell IC50 (Cell-Based Assay) were determined following the assay procedures described in WO 95/10516, published Apr. 20, 1995. GGPT IC50 (inhibition of geranylgeranyl protein transferase, in vitro enzyme assay), Cell Mat Assay, and anti-tumor activity (in vivo anti-tumor studies) could be determined by the assay procedures described in WO 95/10516. The disclosure of WO 95/10516 is incorporated herein by reference thereto.

The target in assay [2] is farnesyl protein transferase (K-ras) (Homo sapiens, UniProt P49354+P49356). In words: FPT IC50 (K-ras), inhibition of farnesyl protein transferase, in vitro enzyme assay. It counts as biochemical. The method, then:
as §1

The next assay deals with Human tumor cells. In words: Soft Agar Assay (anchorage-independent growth). It counts as cell-based. The note with it: incubated 10-16 days at 37° C. under 5% CO2, MTT stain. The protocol:
Anchorage-independent growth is a characteristic of tumorigenic cell lines. Human tumor cells are suspended in growth medium containing 0.3% agarose and an indicated concentration of a farnesyl transferase inhibitor. The solution is overlayed onto growth medium solidified with 0.6% agarose containing the same concentration of farnesyl transferase inhibitor as the top layer. After the top layer is solidified, plates are incubated for 10-16 days at 37° C. under 5% CO2 to allow colony outgrowth. After incubation, the colonies are stained by overlaying the agar with a solution of MTT (3-[4,5-dimethyl-thiazol-2-yl]-2,5-diphenyltetrazolium bromide, Thiazolyl blue) (1 mg/mL in PBS). Colonies can be counted and the IC50 's can be determined.

Another assay deals with COS Cell. In words: COS Cell IC50 (Cell-Based Assay). The note with it: COS cells. The method, then:
as §1

For orientation: IC50 means the concentration that gives 50% inhibition. A lower IC50 goes with greater potency.

Molecules are shown by their SMILES.

As to `O=C(CC1CCN(c2nccs2)CC1)N1CCC([C@H]2c3ncc(Br)cc3CCc3cc(Cl)cc(Br)c32)CC1` [Formula 3.0], inhibition in assay [1] was half-maximal at 140 nM (IC50).

In the case of `O=C(CC1CCN(c2nnnn2-c2ccccc2)CC1)N1CCC([C@H]2c3ncc(Br)cc3CCc3cc(Cl)cc(Br)c32)CC1` [Formula 2.0], it took 31 nM to reach half-maximal inhibition in assay [1] (IC50).

As for `CC(=O)OC[C@H]1O[C@@H](N2CCC(CC(=O)N3CCC([C@H]4c5ncc(Br)cc5CCc5cc(Cl)cc(Br)c54)CC3)CC2)[C@H](OC(C)=O)[C@@H](OC(C)=O)[C@@H]1OC(C)=O` [Formula 9.3], the IC50 in assay [2] is 40.9 nM; in the assay on Human tumor cells, 80 nM; with COS Cell it was 35 nM; in assay [1], 4.6 nM.

As for `O=C(CC1CCN(c2nc3ccccc3o2)CC1)N1CCC([C@H]2c3ncc(Br)cc3CCc3cc(Cl)cc(Br)c32)CC1` [Formula 4.0], the IC50 in assay [2] stood at 91 nM; with COS Cell, 120 nM; in assay [1], 16 nM.

For `O=C(CC1CCN(c2ncccn2)CC1)N1CCC([C@H]2c3ncc(Br)cc3CCc3cc(Cl)cc(Br)c32)CC1` [Formula 6.0], the IC50 in the assay with COS Cell came to 68 nM; in assay [1] it was 20 nM.

Take `O=C(CC1CCN(c2ccccn2)CC1)N1CCC([C@H]2c3ncc(Br)cc3CCc3cc(Cl)cc(Br)c32)CC1` [Formula 5.0]: the half-inhibitory concentration (IC50) in assay [2] was 29 nM; with Human tumor cells, more than 500 nM; in the assay with COS Cell, 39 nM; in assay [1] it was 10.6 nM.

Values taken from patent US5985879A, “Compounds useful for inhibition of farnesyl protein transferase” (Schering Corporation, priority 1997, dated 1999).
